PubChem BioAssay AID1259407 (Chemical Carcinogenesis Research Information System (CCRIS), 2018)
Activity calls are given as the source filed them. No rule for the calls is given here.

Test system: CCRIS mutagenicity, Ames/micronucleus/aberration tests
Test: CCRIS mutagenicity studies
[1] = Test System: AMES SALMONELLA TYPHIMURIUM, Strain/Indicator: TA98, Metabolic Activation: NONE, Method: PREINCUBATION
[2] = Test System: AMES SALMONELLA TYPHIMURIUM, Strain/Indicator: TA100, Metabolic Activation: NONE, Method: PREINCUBATION
[3] = Test System: AMES SALMONELLA TYPHIMURIUM, Strain/Indicator: TA102, Metabolic Activation: NONE, Method: PREINCUBATION
[4] = Test System: AMES SALMONELLA TYPHIMURIUM, Strain/Indicator: TA102, Metabolic Activation: RAT, LIVER, S-9, AROCLOR 1254, Method: PREINCUBATION
[5] = Test System: AMES SALMONELLA TYPHIMURIUM, Strain/Indicator: TA1535, Metabolic Activation: NONE, Method: PREINCUBATION
[6] = Test System: AMES SALMONELLA TYPHIMURIUM, Strain/Indicator: TA1537, Metabolic Activation: NONE, Method: PREINCUBATION

For CCC(C)C=O (stereo not given), the mutagenic call [1] was “inactive; negative”, the mutagenic call (Test System: AMES SALMONELLA TYPHIMURIUM, Strain/Indicator: TA98, Metabolic Activation: RAT, LIVER, S-9, AROCLOR 1254, Method: PREINCUBATION) was “inactive; negative” and the mutagenic call [2] was “inactive; negative”. For the same molecule, the mutagenic call (Test System: AMES SALMONELLA TYPHIMURIUM, Strain/Indicator: TA100, Metabolic Activation: RAT, LIVER, S-9, AROCLOR 1254, Method: PREINCUBATION) was “inactive; negative”, the mutagenic call [3] was “inactive; negative” and the mutagenic call [4] was “inactive; negative”.
For CCOC(=O)CC(C)=O, the mutagenic call (Test System: AMES SALMONELLA TYPHIMURIUM, Strain/Indicator: TA97, Metabolic Activation: NONE, Method: PREINCUBATION) was “inactive; negative”, the mutagenic call (Test System: AMES SALMONELLA TYPHIMURIUM, Strain/Indicator: TA97, Metabolic Activation: RAT, LIVER, S-9, AROCLOR 1254, Method: PREINCUBATION) was “inactive; negative” and the mutagenic call [1] was “inactive; negative”. The mutagenic call (Test System: AMES SALMONELLA TYPHIMURIUM, Strain/Indicator: TA98, Metabolic Activation: RAT LIVER S-9, PHENOBARBITAL AND BETA-NAPHTHOFLAVONE, Method: PREINCUBATION) was “inactive; negative”, the mutagenic call [2] was “inactive; negative” and the mutagenic call (Test System: AMES SALMONELLA TYPHIMURIUM, Strain/Indicator: TA100, Metabolic Activation: RAT LIVER S-9, PHENOBARBITAL AND BETA-NAPHTHOFLAVONE, Method: PREINCUBATION) was “inactive; negative”. For the same molecule, the mutagenic call [3] was “inactive; negative”, the mutagenic call [4] was “inactive; negative” and the mutagenic call [5] was “inactive; negative”. The mutagenic call (Test System: AMES SALMONELLA TYPHIMURIUM, Strain/Indicator: TA1535, Metabolic Activation: RAT LIVER S-9, PHENOBARBITAL AND BETA-NAPHTHOFLAVONE, Method: PREINCUBATION) was “inactive; negative”, the mutagenic call [6] was “inactive; negative” and the mutagenic call (Test System: AMES SALMONELLA TYPHIMURIUM, Strain/Indicator: TA1537, Metabolic Activation: RAT LIVER S-9, PHENOBARBITAL AND BETA-NAPHTHOFLAVONE, Method: PREINCUBATION) was “inactive; negative”. For the same molecule, the mutagenic call (Test System: AMES SALMONELLA TYPHIMURIUM, Strain/Indicator: TA1538, Metabolic Activation: NONE, Method: PREINCUBATION) was “inactive; negative”, the mutagenic call (Test System: AMES SALMONELLA TYPHIMURIUM, Strain/Indicator: TA1538, Metabolic Activation: RAT LIVER S-9, PHENOBARBITAL AND BETA-NAPHTHOFLAVONE, Method: PREINCUBATION) was “inactive; negative” and the mutagenic call (Test System: E.COLI, Strain/Indicator: WP2UVRA, Metabolic Activation: NONE, Method: PREINCUBATION) was “inactive; negative”. For the same molecule, the mutagenic call (Test System: E.COLI, Strain/Indicator: WP2UVRA, Metabolic Activation: RAT LIVER S-9, PHENOBARBITAL AND BETA-NAPHTHOFLAVONE, Method: PREINCUBATION) was “inactive; negative”.
For OCC(CO)(CBr)CBr, the mutagenic call (End Point: IN VITRO CHROMOSOMAL ABERRATIONS, Test System: CHINESE HAMSTER OVARY CELLS, Metabolic Activation: NONE) was “inactive; negative”, the mutagenic call (End Point: IN VITRO CHROMOSOMAL ABERRATIONS, Test System: CHINESE HAMSTER OVARY CELLS, Metabolic Activation: RAT, LIVER, S-9, AROCLOR 1254) was “active; positive” and the mutagenic call (Test System: AMES SALMONELLA TYPHIMURIUM, Strain/Indicator: TA98, Metabolic Activation: HAMSTER, LIVER, S-9, AROCLOR 1254 (10%), Method: PREINCUBATION) was “inactive; negative”. The mutagenic call (Test System: AMES SALMONELLA TYPHIMURIUM, Strain/Indicator: TA98, Metabolic Activation: HAMSTER, LIVER, S-9, AROCLOR 1254 (30%), Method: PREINCUBATION) was “inactive; negative”, the mutagenic call [1] was “inactive; negative” and the mutagenic call (Test System: AMES SALMONELLA TYPHIMURIUM, Strain/Indicator: TA98, Metabolic Activation: RAT, LIVER, S-9, AROCLOR 1254 (10%), Method: PREINCUBATION) was “inactive; negative”. For the same molecule, the mutagenic call (Test System: AMES SALMONELLA TYPHIMURIUM, Strain/Indicator: TA98, Metabolic Activation: RAT, LIVER, S-9, AROCLOR 1254 (30%), Method: PREINCUBATION) was “inactive; negative”, the mutagenic call (Test System: AMES SALMONELLA TYPHIMURIUM, Strain/Indicator: TA100, Metabolic Activation: HAMSTER, LIVER, S-9, AROCLOR 1254 (10%), Method: PREINCUBATION) was “inactive; negative” and the mutagenic call (Test System: AMES SALMONELLA TYPHIMURIUM, Strain/Indicator: TA100, Metabolic Activation: HAMSTER, LIVER, S-9, AROCLOR 1254 (30%), Method: PREINCUBATION) was “active; positive”. For the same molecule, the mutagenic call [2] was “inactive; negative”, the mutagenic call (Test System: AMES SALMONELLA TYPHIMURIUM, Strain/Indicator: TA100, Metabolic Activation: RAT, LIVER, S-9, AROCLOR 1254 (10%), Method: PREINCUBATION) was “inactive; negative” and the mutagenic call (Test System: AMES SALMONELLA TYPHIMURIUM, Strain/Indicator: TA100, Metabolic Activation: RAT, LIVER, S-9, AROCLOR 1254 (30%), Method: PREINCUBATION) was “inactive; negative”. The mutagenic call (Test System: AMES SALMONELLA TYPHIMURIUM, Strain/Indicator: TA1535, Metabolic Activation: HAMSTER, LIVER, S-9, AROCLOR 1254 (10%), Method: PREINCUBATION) was “inactive; negative”, the mutagenic call [5] was “inactive; negative” and the mutagenic call (Test System: AMES SALMONELLA TYPHIMURIUM, Strain/Indicator: TA1535, Metabolic Activation: RAT, LIVER, S-9, AROCLOR 1254 (10%), Method: PREINCUBATION) was “inactive; negative”. The mutagenic call (Test System: AMES SALMONELLA TYPHIMURIUM, Strain/Indicator: TA1537, Metabolic Activation: HAMSTER, LIVER, S-9, AROCLOR 1254 (10%), Method: PREINCUBATION) was “inactive; negative”, the mutagenic call [6] was “inactive; negative” and the mutagenic call (Test System: AMES SALMONELLA TYPHIMURIUM, Strain/Indicator: TA1537, Metabolic Activation: RAT, LIVER, S-9, AROCLOR 1254 (10%), Method: PREINCUBATION) was “inactive; negative”.
In the case of CC(C)(c1ccc(OCC(O)CO)cc1)c1ccc(OCC(O)CO)cc1 (stereo not given), the mutagenic call (Test System: AMES SALMONELLA TYPHIMURIUM, Strain/Indicator: TA98, Metabolic Activation: NONE, Method: STANDARD PLATE) is reported as “inactive; negative”, the mutagenic call (Test System: AMES SALMONELLA TYPHIMURIUM, Strain/Indicator: TA98, Metabolic Activation: RAT LIVER S-9, PHENOBARBITAL/METHYLCHOLANTHRENE (4%), Method: STANDARD PLATE) is reported as “inactive; negative” and the mutagenic call (Test System: AMES SALMONELLA TYPHIMURIUM, Strain/Indicator: TA100, Metabolic Activation: NONE, Method: STANDARD PLATE) is reported as “inactive; negative”. The mutagenic call (Test System: AMES SALMONELLA TYPHIMURIUM, Strain/Indicator: TA100, Metabolic Activation: RAT LIVER S-9, PHENOBARBITAL/METHYLCHOLANTHRENE (4%), Method: STANDARD PLATE) was “inactive; negative”, the mutagenic call (Test System: AMES SALMONELLA TYPHIMURIUM, Strain/Indicator: TA1535, Metabolic Activation: NONE, Method: STANDARD PLATE) was “inactive; negative” and the mutagenic call (Test System: AMES SALMONELLA TYPHIMURIUM, Strain/Indicator: TA1535, Metabolic Activation: RAT LIVER S-9, PHENOBARBITAL/METHYLCHOLANTHRENE (10%), Method: STANDARD PLATE) was “inactive; negative”. For the same molecule, the mutagenic call (Test System: AMES SALMONELLA TYPHIMURIUM, Strain/Indicator: TA1537, Metabolic Activation: NONE, Method: STANDARD PLATE) was “inactive; negative” and the mutagenic call (Test System: AMES SALMONELLA TYPHIMURIUM, Strain/Indicator: TA1737, Metabolic Activation: RAT LIVER S-9, PHENOBARBITAL/METHYLCHOLANTHRENE (10%), Method: STANDARD PLATE) was “inactive; negative”.
With O[C@@H]1C=Cc2c(cc3ccc4cccc5c6ccccc6c2c3c45)[C@H]1O the mutagenic call (Test System: CHINESE HAMSTER V-79, Strain/Indicator: V-79 (HPRT)/6-THIOGUANINE, Metabolic Activation: HUMAN MAMMARY CARCINOMA MCF-7 CELLS) was “active; positive” and the mutagenic call (Test System: CHINESE HAMSTER V-79, Strain/Indicator: V-79, Metabolic Activation: RAT, LIVER, S-9, AROCLOR 1254) was “active; positive”.
